We go through 26 molecules from patent US20240109930A1, “TRIAZOLYL-METHYL SUBSTITUTED ALPHA-D-GALACTOPYRANOSIDE DERIVATIVES” (Idorsia Pharmaceuticals Ltd, priority 2021, published 2024).

Assay [1] concerns the target human Gal-3 (hGal-3) (Homo sapiens (Human), UniProt P17931). Kind of assay: Competitive binding assay: biotinylated hGal-3 binding to microplate-adsorbed asialofetuin (ASF). As to conditions: IC50 values from several measurements given as geomean. The method, boiled down:
(§1)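 Biotinylated hGal-3 or hGal-1 (preferably cysteine-free Cys→Ser mutant), 300–1000 ng/mL, competes with compound for ASF-coated wells for 3 h at 4 °C. Bound lectin detected with streptavidin-peroxidase (80 ng/mL, 1 h, 4 °C) and ABTS by absorbance; IC50 reported as geomean of several runs.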

Assay [2] concerns the target human Gal-1 (hGal-1) (Homo sapiens, UniProt P09382, C131S/C17S/C43S/C61S/C89S). The experiment in a line: Competitive binding assay: biotinylated hGal-1 binding to microplate-adsorbed asialofetuin (ASF). As to conditions: IC50 values from several measurements given as geomean. The method, boiled down: as §1

Sequence of human Gal-3 (hGal-3) (P17931 whole entry): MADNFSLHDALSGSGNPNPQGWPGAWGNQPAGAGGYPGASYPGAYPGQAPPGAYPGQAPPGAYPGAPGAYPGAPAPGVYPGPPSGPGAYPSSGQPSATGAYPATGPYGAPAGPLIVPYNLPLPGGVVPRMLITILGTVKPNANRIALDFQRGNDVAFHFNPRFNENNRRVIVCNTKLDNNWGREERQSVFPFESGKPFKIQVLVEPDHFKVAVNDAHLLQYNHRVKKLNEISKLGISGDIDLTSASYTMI

The term IC50 denotes the concentration that inhibits the measured activity by half. The low end stands for higher potency, the high end for lower potency. For the molecule `CO[C@@H]1[C@@H](n2cc(-c3ccc(Cl)c(F)c3F)nn2)[C@@H](O)[C@@H](CO)O[C@@H]1Cc1cn([C@@H]2CCOC[C@H]2F)nn1` [Example 2.1.66.C, (2R,3R,4S,5R,6R)-4-(4-(4-chloro-2,3-difluorophenyl)-1H-1,2,3-triazol-1-yl)-6-((1-((3S,4R)-3-fluorotetrahydro-2H-pyran-4-yl)-1H-1,2,3-triazol-4-yl)methyl)-2-(hydroxymethyl)-5-methoxytetrahydro-2H-pyran-3-ol], the IC50 in assay [1] came out at 0.02 µM; in assay [2], 0.95 µM.
Consider `CO[C@@H]1[C@@H](n2cc(-c3ccc(C)c(F)c3F)nn2)[C@@H](O)[C@@H](CO)O[C@@H]1Cc1cn(C2(CO)CC(F)(F)C2)nn1` [Ex 1.1.18.], for which the IC50 is 0.05 µM in assay [1] and 1.47 µM in assay [2].
For `CO[C@@H]1[C@@H](n2cc(-c3ccc(Cl)c(F)c3F)nn2)[C@@H](O)[C@@H](CO)O[C@@H]1Cc1cn([C@]2(C)CCO[C@@H]2C)nn1` (single isomer, unassigned) [Example 2.1.68.A, (2R,3R,4S,5R,6R)-4-(4-(4-chloro-2,3-difluorophenyl)-1H-1,2,3-triazol-1-yl)-6-((1-((2R*,3R*)-2,3-dimethyltetrahydrofuran-3-yl)-1H-1,2,3-triazol-4-yl)methyl)-2-(hydroxymethyl)-5-methoxytetrahydro-2H-pyran-3-ol], in that order: 0.03 µM and 1.1 µM.
Taken in the same sequence, the figures for `CO[C@@H]1[C@@H](n2cc(-c3ccc(Br)c(F)c3F)nn2)[C@@H](O)[C@@H](CO)O[C@@H]1Cn1cc(C2CCCC2)nn1` [Ex 4.2.32.] were 0.06 µM and 2.68 µM.
On to `CO[C@@H]1[C@@H](n2cc(-c3ccc(Cl)c(F)c3F)nn2)[C@@H](O)[C@@H](CO)O[C@@H]1Cc1cn(C2CCC2(F)F)nn1` (single isomer, unassigned) [Example 2.1.63.B], for which the 50% inhibitory concentration (IC50) amounted to 0.04 µM in assay [1] and 2 µM in assay [2].
For `CO[C@@H]1[C@@H](n2cc(-c3ccc(F)c(F)c3F)nn2)[C@@H](O)[C@@H](CO)O[C@@H]1Cn1cc(C2(O)CC2)nn1` [Ex 3.2.36.], in that order: 0.13 µM and 2.14 µM.
Taken in the same sequence, the figures for `COCC1(n2cc(C[C@H]3O[C@H](CO)[C@H](O)[C@H](n4cc(-c5ccc(C)c(F)c5F)nn4)[C@H]3OC)nn2)COC1` [Ex 1.1.21.] were 0.04 µM and 0.84 µM.
As to `CO[C@@H]1[C@@H](n2cc(-c3ccc(F)c(F)c3F)nn2)[C@@H](O)[C@@H](CO)O[C@@H]1Cc1cn(C2(C(F)(F)F)COC2)nn1` [Ex 3.1.58., (2R,3R,4S,5R,6R)-2-(hydroxymethyl)-5-methoxy-6-((1-(3-(trifluoromethyl)oxetan-3-yl)-1H-1,2,3-triazol-4-yl)methyl)-4-(4-(2,3,4-trifluorophenyl)-1H-1,2,3-triazol-1-yl)tetrahydro-2H-pyran-3-ol], the half-maximal inhibitory concentration (IC50) in assay [1] worked out at 0.04 µM; in assay [2] it was 0.2 µM.
Turning to `CO[C@@H]1[C@@H](n2cc(-c3ccc(Br)c(F)c3F)nn2)[C@@H](O)[C@@H](CO)O[C@@H]1Cc1cn(C23CC(C)(C2)C3)nn1` [Ex 4.1.14., (2R,3R,4S,5R,6R)-4-(4-(4-bromo-2,3-difluorophenyl)-1H-1,2,3-triazol-1-yl)-2-(hydroxymethyl)-5-methoxy-6-((1-(3-methylbicyclo[1.1.1]pentan-1-yl)-1H-1,2,3-triazol-4-yl)methyl)tetrahydro-2H-pyran-3-ol], the IC50 in assay [1] stood at 0.06 µM; in assay [2] it was 1.36 µM.
With `CO[C@@H]1[C@@H](n2cc(-c3ccc(Cl)c(F)c3F)nn2)[C@@H](O)[C@@H](CO)O[C@@H]1Cc1cn([C@]2(C)C[C@H](O)C2)nn1` [Ex 2.1.19.], the values for the IC50 in assay [1] and in assay [2] were 0.04 µM and 0.63 µM, respectively.
`CO[C@@H]1[C@@H](n2cc(-c3ccc(F)c(F)c3F)nn2)[C@@H](O)[C@@H](CO)O[C@@H]1Cn1cc(C2(O)CCOCC2)nn1` [Ex 3.2.35.]: the 50% inhibitory concentration (IC50) in assay [1] is 0.06 µM; in assay [2], 0.86 µM.
Turning to `CO[C@@H]1[C@@H](n2cc(-c3ccc(C)c(F)c3F)nn2)[C@@H](O)[C@@H](CO)O[C@@H]1Cc1cn(C2(C(F)(F)F)COC2)nn1` [Ex 1.1.58.], the IC50 was determined as 0.03 µM in assay [1] and 0.8 µM in assay [2].
As to `CO[C@@H]1[C@@H](n2cc(-c3ccc(Br)c(F)c3F)nn2)[C@@H](O)[C@@H](CO)O[C@@H]1Cc1cn(C2(C)CC2)nn1` [Ex 4.1.23.], the concentration for half-maximal inhibition (IC50) in assay [1] was 0.03 µM; in assay [2], 1.8 µM.
Taken in the same sequence, the figures for `CO[C@@H]1[C@@H](n2cc(-c3ccc(C)c(F)c3F)nn2)[C@@H](O)[C@@H](CO)O[C@@H]1Cc1cn(C23CC(C(F)(F)F)(C2)C3)nn1` [Ex 1.1.24.] were 0.08 µM and 5.04 µM.
Taken in the same sequence, the figures for `CO[C@@H]1[C@@H](n2cc(-c3ccc(C)c(F)c3F)nn2)[C@@H](O)[C@@H](CO)O[C@@H]1Cc1cn([C@H]2CCC[C@@H]2O)nn1` [Ex 1.1.3.] were 0.04 µM and 3.15 µM.
On to `CO[C@@H]1[C@@H](n2cc(-c3ccc(Cl)c(F)c3F)nn2)[C@@H](O)[C@@H](CO)O[C@@H]1Cc1cn(C2(C)CC2)nn1` [Ex 2.1.23.], for which the results for the IC50 in assay [1] and in assay [2] were 0.02 µM and 1.09 µM, respectively.
On to `CO[C@@H]1[C@@H](n2cc(-c3ccc(F)c(F)c3F)nn2)[C@@H](O)[C@@H](CO)O[C@@H]1Cc1cn(C23CC(C)(C2)C3)nn1` [Ex 3.1.14.], for which the figures for the IC50 in assay [1] and in assay [2] were 0.06 µM and 0.7 µM, respectively.
For the molecule `CO[C@@H]1[C@@H](n2cc(-c3ccc(Cl)c(F)c3F)nn2)[C@@H](O)[C@@H](CO)O[C@@H]1Cc1cn(C2(CF)CCC2)nn1` [Ex 2.1.40.], the results for the concentration for half-maximal inhibition (IC50) in assay [1] and in assay [2] were 0.05 µM and 1.63 µM, respectively.
Taken in the same sequence, the figures for `CO[C@@H]1[C@@H](n2cc(-c3ccc(F)c(F)c3F)nn2)[C@@H](O)[C@@H](CO)O[C@@H]1Cc1cn(C2(CO)CC(F)(F)C2)nn1` [Ex 3.1.18.] were 0.09 µM and 1.39 µM.
Taken in the same sequence, the figures for `CO[C@@H]1[C@@H](n2cc(-c3ccc(Br)c(F)c3F)nn2)[C@@H](O)[C@@H](CO)O[C@@H]1Cc1cn(C23COC(C2)C3)nn1` [Ex 4.1.44.] were 0.04 µM and 3.3 µM.
`CO[C@@H]1[C@@H](n2cc(-c3ccc(C)c(F)c3F)nn2)[C@@H](O)[C@@H](CO)O[C@@H]1Cc1cn(C2(CO)CCC2)nn1` [Ex 1.1.11.]: the IC50 in assay [1] is 0.04 µM; in assay [2], 2.09 µM.
Turning to `COCC1(n2cc(C[C@H]3O[C@H](CO)[C@H](O)[C@H](n4cc(-c5ccc(Br)c(F)c5F)nn4)[C@H]3OC)nn2)CCC1` [Ex 4.1.21.], the IC50 in assay [1] stood at 0.07 µM; in assay [2] it was 1.53 µM.
Taken in the same sequence, the figures for `CO[C@@H]1[C@@H](n2cc(-c3ccc(C)c(F)c3F)nn2)[C@@H](O)[C@@H](CO)O[C@@H]1Cn1cc(C2(O)CCOCC2)nn1` [Ex 1.2.35.] were 0.07 µM and 4.5 µM.
As to `CO[C@@H]1[C@@H](n2cc(-c3ccc(C)c(F)c3F)nn2)[C@@H](O)[C@@H](CO)O[C@@H]1Cc1cn(C2(CO)CCCC2)nn1` [Ex 1.1.5.], the IC50 worked out at 0.05 µM in assay [1] and 2.57 µM in assay [2].
For `CO[C@@H]1[C@@H](n2cc(-c3ccc(Cl)c(F)c3F)nn2)[C@@H](O)[C@@H](CO)O[C@@H]1Cc1cn(C2(CO)CC(F)(F)C2)nn1` [Ex 2.1.18.], in that order: 0.04 µM and 2.81 µM.
Taken in the same sequence, the figures for `CO[C@@H]1[C@@H](n2cc(-c3ccc(Cl)c(F)c3F)nn2)[C@@H](O)[C@@H](CO)O[C@@H]1Cn1cc(C2(C)COC2)nn1` [Ex 2.2.6.] were 0.03 µM and 1.17 µM.
